The values that follow come from US8722901B2, “Carboxy oxazole or thiazole compounds as DGAT-1 inhibitors useful for the treatment of obesity” (Piramal Enterprises Limited, priority 2009, dated 2014).

One assay addresses T1, hDGAT-1 (Homo sapiens, UniProt O75907).
T1 construct: host or cells: Sf9 insect cells (baculovirus); microsomal fraction
T1 sequence (O75907 1-488): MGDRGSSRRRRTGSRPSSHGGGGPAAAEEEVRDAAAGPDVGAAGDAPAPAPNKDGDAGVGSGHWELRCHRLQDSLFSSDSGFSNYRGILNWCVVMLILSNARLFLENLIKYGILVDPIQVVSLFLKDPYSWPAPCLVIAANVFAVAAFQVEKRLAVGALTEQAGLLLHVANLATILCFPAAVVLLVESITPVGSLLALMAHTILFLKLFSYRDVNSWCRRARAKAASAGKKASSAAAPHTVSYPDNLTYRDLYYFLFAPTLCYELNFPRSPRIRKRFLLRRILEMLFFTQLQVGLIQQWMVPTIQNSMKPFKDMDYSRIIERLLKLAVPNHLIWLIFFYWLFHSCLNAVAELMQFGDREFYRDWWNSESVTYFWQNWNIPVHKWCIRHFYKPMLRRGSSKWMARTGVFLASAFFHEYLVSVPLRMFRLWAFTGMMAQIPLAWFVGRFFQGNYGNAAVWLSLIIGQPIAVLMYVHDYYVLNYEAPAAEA
Briefly: In-vitro DGAT-1 assay (14C oleoyl CoA, microsomes from Sf9 cells). In kind it is biochemical. The following applies: 1 μM compound; hDGAT-1 containing microsomes from Sf9 cells. Here is the method: In-Vitro Protocol for DGAT-1 Assay
Sf9 Culture and Treatment
Sf9 cells were grown in T25 flasks containing Graces's Insect media (Invitrogen, US) with 10% FBS (Hyclone, US) with antibiotic (100 units/mL penicillin, 100 μg/mL streptomycin sulphate, 0.25 μg/mL amphotericin B as Fungizone) grown in a 27° C. incubator.
hDGAT-10RF expression clone (RZPDo839C09146 in pDEST vector) was obtained from RZPD, Germany. hDGAT-1 bacmid DNA was obtained by transformation of the hDGAT expression clone into DH10Bac E. coli competent cells. Approximately 1 μg of hDGAT-1 bacmid DNA was infected into Sf9 cells with Cellfectin (Invitrogen, US) reagent. Following infection, Sf9 cells were incubated at 27° C. for 30 minutes. Five hours after infection, the media was replaced with growth media containing antibiotic (100 units/mL penicillin, 100 μg/mL streptomycin sulphate, 0.25 μg/mL amphotericin B as Fungizone) and incubated at 27° C. for 72 hours. The supernatant containing the virus was centrifuged at 1500 g for 5 minutes, passed through 0.22 μm filter, and subsequently stored at 4° C. The virus was further amplified three more times by re-infection of Sf9 cells and the viral titer was determined by plaque assay.
Preparation of DGAT-1 Microsomes from Sf9 Cells
Sf9 cells were seeded in spinner flasks on day 0 at a cell density of 1×10^6 and infected on day 1 with hDGAT-1 baculovirus at a multiplicity of infection (MOI) of 5 and a cell density of 2×10^6. On day 3 (or 66-72 hours), cells were harvested and centrifuged at 2500 g for 10 minutes. Pellet was resuspended in lysis buffer (100 mM sucrose, 50 mM KCl, 40 mM KH2PO4, 30 mM EDTA, pH 7.2) and passed through 21-gauge needle approximately 10 times. […] The supernatant was subjected to centrifugation at 35,000 rpm in a Beckman Ti-45 rotor at 4° C. for 1 hour. The resultant pellet containing the microsomes were resuspended overnight in 1 mL of lysis buffer and total protein concentration was estimated using Bradford Reagent (Sigma, US). Microsomes were aliquoted and stored at −80° C.
Measurement of DGAT-1 Activity
Frozen aliquots of hDGAT-1 containing microsomes were thawed (5-10 mg/mL total protein) on ice and diluted to a working stock of 1 mg/mL with DGAT Assay Buffer (DAB).
The assay was performed in duplicates in a reaction volume of 100 μL. […] Procedure:
The reaction was started by the addition of […] of 1 mg/mL of microsomes (iv) to the mixture and incubated at 37° C. for 10 minutes. […] The mixture was vortexed and the triglycerides formed were extracted into the organic heptane phase.

The subject of another assay is Swiss mice. Briefly: Fat tolerance test (ftt) in mice. In kind it is in vivo. To be noted: 3 mg/kg p.o., olive oil load 10 ml/kg p.o., reduction in AUC0-4h, vehicle group as 100%. Here is the method:
Study Protocol for Screening of Compounds for Fat Tolerance Test (ftt) in Mice
Swiss mice of age 4-5 weeks and body weight between 25-30 g were selected for study. After overnight fasting, animals were divided into three groups based on plasma triglyceride level with same mean and variation Animals were administered with either vehicle (1% Tween 80 in 0.5% carboxy methylcellulose) or with compounds of the present invention (3 mg/kg, p.o.). Compounds of the present invention were prepared as suspension in 0.5% carboxy methylcellulose (CMC) with 1% Tween 80. 30 minutes after the treatment, olive oil load (10 ml/kg, p.o.) was given. Blood samples were collected at 1, 2, 3 and 4 h after the fat (olive oil) load. Plasma was separated and triglyceride level was measured using commercially available kits (Diasys, Germany). Percentage reduction in area under curve (AUC0-4h) of the test compound was calculated by taking AUC0-4h of the vehicle group as 100%.

Regarding “2-(5-(4-(3-(3,4-dimethylphenyl)ureido)phenyl)oxazole-2-carboxamido)-3-methylbutanoic acid [Example 14]”, at hDGAT-1, the “% inhibition of hDGAT-1 at 1 μM” value is “++ (>50% Inhibition ≦100)”. Further, in the assay on Swiss mice, the “% Reduction (Plasma triglyceride)” value is listed as “++ (>50% Reduction ≦100)”. `CC(C)C(NC(=O)c1ncc(-c2ccc(NC(=O)Nc3ccccc3Cl)cc2)o1)C(=O)O` (centres unmarked) [Example 4, 2-(5-(4-(3-(2-Chlorophenyl)ureido)phenyl)oxazole-2-carboxamido)-3-methylbutanoic acid]: at hDGAT-1, the inhibition at 1 µM was 50 to 100%. Besides, the “% Reduction (Plasma triglyceride)” value with Swiss mice is given as “+ (>0% Reduction ≦50)”. Take `CC(C)C(NC(=O)c1ncc(-c2ccc(NC(=O)Nc3cccc(C(F)(F)F)c3)cc2)s1)C(=O)O` (centres unmarked) [Example 10, 3-methyl-2-(5-(4-(3-(3-(trifluoromethyl)phenyl)ureido)phenyl)thiazole-2-carboxamido)butanoic acid]: the “% Reduction (Plasma triglyceride)” value in the assay with Swiss mice is on record as “++ (>50% Reduction ≦100)”. `CC(C)C(NC(=O)c1ncc(-c2ccc(NC(=O)Nc3ccccc3Cl)cc2)s1)C(=O)O` (centres unmarked) [Example 12, 2-(5-(4-(3-(2-Chlorophenyl)ureido)phenyl)thiazole-2-carboxamido)-3-methylbutanoic acid]: in the assay with Swiss mice, the “% Reduction (Plasma triglyceride)” value is given as “++ (>50% Reduction ≦100)”.

Turning to `CC(C)C(NC(=O)c1ncc(-c2ccc(NC(=O)Nc3ccccc3Oc3ccccc3)cc2)s1)C(=O)O` (centres unmarked) [Example 16, 3-methyl-2-(5-(4-(3-(2-phenoxyphenyl)ureido)phenyl)thiazole-2-carboxamido)butanoic acid], the “% Reduction (Plasma triglyceride)” value in the assay on Swiss mice was “++ (>50% Reduction ≦100)”. Still for that read-out and setting: with `CC(C)C(NC(=O)c1ncc(-c2ccc(NC(=O)Nc3ccc(Cl)cc3Oc3ccccc3)cc2)s1)C(=O)O` (centres unmarked) [Example 18, 2-(5-(4-(3-(4-chloro-2-phenoxyphenyl)ureido)phenyl)thiazole-2-carboxamido)-3-methylbutanoic acid] the entry was “++ (>50% Reduction ≦100)”; with `CC(C)C(NC(=O)c1ncc(-c2ccc(Nc3nc4ccc(F)cc4s3)cc2)s1)C(=O)O` (centres unmarked) [Example 20, 2-(5-(4-(6-fluorobenzo[d]thiazol-2-ylamino)phenyl)thiazole-2-carboxamido)-3-methylbutanoic acid], “++ (>50% Reduction ≦100)”.

As for `CC(C)C(NC(=O)c1ncc(-c2ccc(NC(=O)c3ccc(C(C)(C)C)cc3)cc2)s1)C(=O)O` (centres unmarked) [Example 22, 2-(5-(4-(4-tert-butylbenzamido)phenyl)thiazole-2-carboxamido)-3-methylbutanoic acid], the “% Reduction (Plasma triglyceride)” value in the assay with Swiss mice was “++ (>50% Reduction ≦100)”. `CC(C)C(NC(=O)c1ncc(-c2ccc(N(Cc3ccccc3)Cc3ccccc3)cc2)s1)C(=O)O` (centres unmarked) [Example 93, 2-(5-(4-(dibenzylamino)phenyl)thiazole-2-carboxamido)-3-methylbutanoic acid] showed an inhibition at 1 µM against hDGAT-1 of 0 to 50%.

By inhibition is commonly meant the drop in the measured response relative to a control, in per cent.
